Assay results taken from ChEMBL document CHEMBL4342465, “Lead Optimization and Avoidance of Reactive Metabolite Leading to PCO371, a Potent, Selective, and Orally Available Human Parathyroid Hormone Receptor 1 (hPTHR1) Agonist” (J Med Chem, 2020).
Values belong to the compound of their own block, whether it stands above or below them. Calls of active or inactive are those of the source. The calls are words filed in the database; no cut-off is given here.

Key:
[1] = Clearance in human liver microsomes at 1 uM measured after 30 mins in presence of NADPH by LC-MS/MS analysis; type: ADME, Microsome; details: read-out: CLH
[2] = biological target: T1, Parathyroid hormone/parathyroid hormone-related peptide receptor (Homo sapiens, UniProt Q03431); experiment: Agonist activity at recombinant human PTHR1 expressed in pig LLC-PK1 cells assessed as increase in cAMP production measured after 20 mins by EIA; type: functional, cell-based
T1 sequence (Q03431 whole entry): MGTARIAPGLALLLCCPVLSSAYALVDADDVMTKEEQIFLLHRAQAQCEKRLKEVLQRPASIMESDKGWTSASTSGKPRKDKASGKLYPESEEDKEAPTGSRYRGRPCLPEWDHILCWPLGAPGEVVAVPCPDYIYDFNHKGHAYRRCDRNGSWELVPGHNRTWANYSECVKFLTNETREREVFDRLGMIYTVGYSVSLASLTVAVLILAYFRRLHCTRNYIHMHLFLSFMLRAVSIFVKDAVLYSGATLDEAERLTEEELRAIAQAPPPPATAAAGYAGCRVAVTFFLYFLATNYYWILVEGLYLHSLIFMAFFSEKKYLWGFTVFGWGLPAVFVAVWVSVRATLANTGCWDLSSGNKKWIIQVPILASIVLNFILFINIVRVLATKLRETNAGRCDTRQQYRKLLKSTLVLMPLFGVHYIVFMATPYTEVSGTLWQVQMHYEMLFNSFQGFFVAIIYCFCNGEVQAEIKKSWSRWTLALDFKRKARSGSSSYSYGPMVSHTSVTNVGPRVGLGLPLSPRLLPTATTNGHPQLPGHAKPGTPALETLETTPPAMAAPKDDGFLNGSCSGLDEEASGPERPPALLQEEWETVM

[3] = biological target: T2, Parathyroid hormone/parathyroid hormone-related peptide receptor (Homo sapiens) (UniProt Q03431); details: LLC-PK1
T2 sequence (whole entry): T1 sequence (Q03431 whole entry)

[4] = Clearance in rat at 2 mg/kg, iv by LC-MS/MS analysis; type: ADME, organism-based; details: in vivo
Rattus norvegicus [5] = experiment: Anti-hypoparathyroidism activity in po dosed TPTX Crl:CD(SD) rat assessed as decrease in serum phosphate level measured up to 24 hrs by xanthine oxidase based method; type: functional, organism-based
Rattus norvegicus [6] = experiment: Anti-hypoparathyroidism activity in po dosed TPTX Crl:CD(SD) rat assessed as increase in serum calcium level by measuring serum calcium level at 30 mg/kg, po administered as single dose measured after 24 hrs by o-CPC method; type: functional
Rattus norvegicus [7] = experiment: Anti-hypoparathyroidism activity in po dosed TPTX Crl:CD(SD) rat assessed as increase in serum calcium level measured up to 24 hrs by o-CPC method; type: functional, organism-based
[8] = Half life in rat at 2 mg/kg, iv by LC-MS/MS analysis; type: ADME, organism-based; details: in vivo
[9] = Volume of distribution at steady state in rat at 2 mg/kg, iv by LC-MS/MS analysis; type: ADME, organism-based; details: in vivo, read-out: Vdss
Rattus norvegicus [10] = experiment: Anti-hypoparathyroidism activity in po dosed TPTX Crl:CD(SD) rat assessed as time required to show maximum increase in serum calcium level by o-CPC method; type: functional
[11] = AUC (infinity) in rat at 2 mg/kg, iv by LC-MS/MS analysis; type: ADME, organism-based; set-up: dose 2 mg/kg, route intravenous, time infinity; details: in vivo
Rattus norvegicus [12] = experiment: Anti-hypoparathyroidism activity in po dosed TPTX Crl:CD(SD) rat assessed as time required to show minimum decrease in serum phosphate level by xanthine oxidase based method; type: functional
[13] = Drug metabolism in human liver microsomes assessed as oxidation by measuring compound 18 formation at 1 uM measured after 30 mins in presence of NADPH by LC-MS/MS analysis; type: ADME, Microsome; details: 0.5 h
[14] = Drug metabolism in human liver microsomes assessed as compound 17 formation at 1 uM measured after 30 mins in presence of NADPH by LC-MS/MS analysis; type: ADME, Microsome; details: 0.5 h
[15] = Drug metabolism in human liver microsomes assessed as hydrolysis by measuring compound 19 formation at 1 uM measured after 30 mins in presence of NADPH by LC-MS/MS analysis; type: ADME, Microsome; details: 0.5 h
Rattus norvegicus [16] = experiment: Anti-hypoparathyroidism activity in sc dosed TPTX Crl:CD(SD) rat assessed as increase in serum calcium level measured up to 24 hrs by o-CPC method; type: functional, organism-based

SMILES: Cc1cc(N2C(=O)NC(=O)C2C)cc(C)c1CCS(=O)(=O)N1CCC2(CC1)N=C(c1ccc(OC(F)(F)F)cc1)NC2=O (centres undefined)
microsomal CLint at 1 µM [1]: 71 µL/min/mg

SMILES: Cc1cc(N2C(=O)CNC2=O)cc(C)c1CCS(=O)(=O)N1CCC2(CC1)N=C([C@H]1CC[C@H](C)CC1)NC2=O
microsomal CLint at 1 µM [1]: 53 µL/min/mg
EC50 [2]: 32 µM
EC20 [3]: 6 µM

SMILES: Cc1cc(N2C(=O)N(C)C(=O)C2(C)C)cc(C)c1CCS(=O)(=O)N1CCC2(CC1)N=C(c1ccc(OC(F)(F)F)cc1)NC2=O
microsomal CLint at 1 µM [1]: 330 µL/min/mg

SMILES: Cc1cc(N2C(=O)NC(=O)C23CCCC3)cc(C)c1CCS(=O)(=O)N1CCC2(CC1)N=C(c1ccc(OC(F)(F)F)cc1)NC2=O
microsomal CLint at 1 µM [1]: 35 µL/min/mg

SMILES: CC[C@H]1CC[C@H](C2=NC3(CCN(S(=O)(=O)CCc4c(C)cc(N(C)C(N)=O)cc4C)CC3)C(=O)N2)CC1
microsomal CLint at 1 µM [1]: 170 µL/min/mg
EC50 [2]: 33 µM
EC20 [3]: 2.2 µM

SMILES: Cc1cc(N(C)C(N)=O)cc(C)c1CCS(=O)(=O)N1CCC2(CC1)N=C([C@H]1CC[C@H](C)CC1)NC2=O
Activity (Rattus norvegicus [5]): Dose-dependent effect
Activity (Rattus norvegicus [7]): Dose-dependent effect
Drug metabolism [14]: Metabolite_Detected

SMILES: Cc1cc(N)cc(CO)c1C(O)CS(=O)(=O)N1CCC2(CC1)N=C([C@H]1CC[C@H](C)CC1)NC2=O (some centres undefined)
Drug metabolism [15]: Metabolite_Detected

SMILES: CC[C@H](C)[C@H](NC(=O)[C@H](CCC(=O)O)NC(=O)[C@H](CO)NC(=O)[C@@H](NC(=O)[C@@H](N)CO)C(C)C)C(=O)N[C@@H](CCC(N)=O)C(=O)N[C@@H](CC(C)C)C(=O)N[C@@H](CCSC)C(=O)NC(Cc1cnc[nH]1)C(=O)N[C@@H](CC(N)=O)C(=O)N[C@@H](CC(C)C)C(=O)NCC(=O)N[C@@H](CCCCN)C(=O)N[C@@H](Cc1cnc[nH]1)C(=O)N[C@@H](CC(C)C)C(=O)N[C@@H](CC(N)=O)C(=O)N[C@@H](CO)C(=O)NC(CCSC)C(=O)N[C@@H](CCC(=O)O)C(=O)N[C@@H](CCCNC(=N)N)C(=O)N[C@H](C(=O)N[C@@H](CCC(=O)O)C(=O)N[C@@H](Cc1c[nH]c2ccccc12)C(=O)N[C@@H](CC(C)C)C(=O)N[C@@H](CCCNC(=N)N)C(=O)N[C@@H](CCCCN)C(=O)N[C@@H](CCCCN)C(=O)N[C@@H](CC(C)C)C(=O)N[C@@H](CCC(N)=O)C(=O)N[C@@H](CC(=O)O)C(=O)N[C@H](C(=O)N[C@@H](Cc1cnc[nH]1)C(=O)N[C@@H](CC(N)=O)C(=O)N[C@@H](Cc1ccccc1)C(=O)O)C(C)C)C(C)C (some centres undefined)
EC20 [3]: 0.0006 µM
Activity (Rattus norvegicus [16]): Active

Further lines, with some results ahead:

microsomal CLint at 1 µM [1]: 29 µL/min/mg
EC50 [2]: > 100 µM
EC20 [3]: 7.4 µM
SMILES: CCC1(CC)C(=O)NC(=O)N1c1cc(C)c(CCS(=O)(=O)N2CCC3(CC2)N=C(c2ccc(OC(F)(F)F)cc2)NC3=O)c(C)c1

EC50 [2]: > 100 µM
EC20 [3]: > 100 µM
SMILES: Cc1cc(N2CC(=O)NC2=O)cc(C)c1CCS(=O)(=O)N1CCC2(CC1)N=C(c1ccc(OC(F)(F)F)cc1)NC2=O

clearance [4]: 30.5 mL/min/kg
Activity (Rattus norvegicus [5]): Dose-dependent effect
microsomal CLint at 1 µM [1]: 30 µL/min/mg
half-life [8]: 1.3 h
Vd [9]: 3.04 L/kg
AUC(0-inf) [11]: 1100 ng·h/mL
EC20 [3]: 1.1 µM
SMILES: Cc1cc(N2C(=O)NC(=O)C2(C)C)cc(C)c1CCS(=O)(=O)N1CCC2(CC1)N=C(c1ccc(OC(F)(F)F)cc1)NC2=O [PCO-371]
Activity (Rattus norvegicus [6]): 8.8 to 10.4 mg/dL
Activity (Rattus norvegicus [7]): Dose-dependent effect
Time (Rattus norvegicus [10]): 10 h
Time (Rattus norvegicus [12]): 10 h

microsomal CLint at 1 µM [1]: 48 µL/min/mg
SMILES: Cc1cc(N(C)C(N)=O)cc(C)c1CCS(=O)(=O)N1CCC2(CC1)N=C(c1ccc(OC(F)(F)F)cc1)NC2=O

Drug metabolism [13]: Metabolite_Detected
SMILES: Cc1cc(N)cc(C)c1CCS(=O)(=O)N1CCC2(CC1)N=C([C@H]1CC[C@H](C)CC1)NC2=O

microsomal CLint at 1 µM [1]: 110 µL/min/mg
SMILES: Cc1cc(N2C(=O)CNC2=O)cc(C)c1CCS(=O)(=O)N1CCC2(CC1)N=C(c1ccc(OC(F)(F)F)cc1)NC2=O
